Source: paper PMC9486808 (ACS Chemical Biology, 2022)
Where “and” joins values, the source holds several entries; their conditions need not be identical. Equal values may be shown once. Starred links: 1 amine or outer side, 2 acyl side, 3 side chain; linkers in the order of their positions; H or OH if unused. Positions of bridges follow the written chain, without caps; N, C: chain ends. Non-standard residues stand in square brackets, D forms with d. Residues, ends and D or L forms follow the SMILES beside them. Groups on a side chain read outwards from the residue. *: point of attachment. X1 = O=C([C@H](CCn1nnc2c1-c1ccccc1CN([*:3])c1ccccc1-2)N[*:1])[*:2]; 6FAM = O=C1OC2(c3ccc(O)cc3Oc3cc(O)ccc32)c2cc(C(=O)*)ccc21; AEEA = NCCOCCOCC(=O)O; Ahx = NCCCCCC(=O)O

Assays:
H1 ectodomain = H1 ectodomain (Influenza A virus, UniProt C3W5S1); assay: biochemical; assay type: binding, Influenza A virus A/California/04/2009 (H1N1)
H1 HA = H1 HA (Influenza A virus, UniProt C3W5S1); assay type: binding, Influenza A virus A/California/04/2009 (H1N1)
[1] = tested on: H1N1pr8 (A/PR8/8/34/Mount Sinai); assay type: cell-based, Influenza A virus
[2] = tested on: H3N1 virus carrying H3 HA of A/Bilthoven/1761/76 (H3N2) in the H1N1pr8 background; assay type: cell-based, Influenza A virus
[3] = target: H1 ectodomain of A/California/04/2009 (H1N1) (Influenza A virus, UniProt C3W5S1); assay type: binding, Influenza A virus A/California/04/2009 (H1N1)
in vitro = settings: HeLa R19 cells and MDCKI cells
[4] = tested on: H1N1pdm09 (A/Netherlands/602/2009); assay type: cell-based, Influenza A virus
[5] = tested on: H1N1pdm09 (A/Netherlands/602/2009)
[6] = tested on: H5N1 virus carrying H5 HA of A/duck/Hunan/795/2002 in the H1N1pr8 genetic background; settings: 16 h

Sequence of H1 ectodomain of A/California/04/2009 (H1N1) (C3W5S1 entry or part of it, added parts left off): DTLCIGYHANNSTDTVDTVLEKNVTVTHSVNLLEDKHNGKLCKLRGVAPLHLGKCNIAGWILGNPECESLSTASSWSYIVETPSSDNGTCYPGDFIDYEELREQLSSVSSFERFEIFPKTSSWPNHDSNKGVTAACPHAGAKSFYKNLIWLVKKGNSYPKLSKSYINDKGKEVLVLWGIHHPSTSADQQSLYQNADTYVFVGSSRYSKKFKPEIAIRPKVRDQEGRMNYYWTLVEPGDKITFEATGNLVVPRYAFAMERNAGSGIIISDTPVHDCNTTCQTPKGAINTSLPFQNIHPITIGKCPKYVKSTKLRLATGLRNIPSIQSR
Sequence of H1 ectodomain (C3W5S1 entry or part of it, added parts left off): as above

Molecule: CC(C)C[C@H](NC(=O)[C@@H]1CSCC(=O)N[C@@H](Cc2ccc(O)cc2)C(=O)N[C@@H](Cc2c[nH]c3ccccc23)C(=O)N[C@@H](Cc2c[nH]cn2)C(=O)N[C@@H](CCCCN)C(=O)N[C@@H](CC(N)=O)C(=O)N[C@@H](CCCCN)C(=O)N[C@@H](Cc2ccc(O)cc2)C(=O)N[C@@H](C(C)C)C(=O)N[C@@H](CC(C)C)C(=O)N[C@@H]([C@@H](C)O)C(=O)N[C@@H](Cc2ccc(O)cc2)C(=O)N[C@@H](CO)C(=O)N1)C(=O)N[C@@H](Cc1ccccc1)C(=O)N[C@@H](C)C(=O)N[C@@H](C)C(=O)NCCOCCOCC(=O)N[C@@H](CCn1nnc2c1-c1ccccc1CN(C(=O)CCCCCNC(=O)c1ccc3c(c1)C1(OC3=O)c3ccc(O)cc3Oc3cc(O)ccc31)c1ccccc1-2)C(=O)NCC(=O)N[C@@H](CC(=O)O)C(=O)N[C@@H](Cc1ccc(O)cc1)C(=O)N[C@@H](CCCCN)C(=O)N[C@@H](CC(=O)O)C(=O)N[C@@H](CC(=O)O)C(=O)N[C@@H](CC(=O)O)C(=O)N[C@@H](CC(=O)O)C(=O)N[C@@H](CCCCN)C(=O)NCC(N)=O [L2FAM] ({CH2CO}-YWHKNKYVLTYSCLFAA[AEEA][X1]([Ahx-6FAM])GDYKDDDDKG-NH2; thioether N-13)
- Hillslope (H1 ectodomain): 0.91 and 0.70

Molecule: CC(C)C[C@H](NC(=O)[C@@H]1CSCC(=O)N[C@@H](Cc2ccc(O)cc2)C(=O)N[C@@H](Cc2c[nH]c3ccccc23)C(=O)N[C@@H](Cc2c[nH]cn2)C(=O)N[C@@H](CCCCN)C(=O)N[C@@H](CC(N)=O)C(=O)N[C@@H](CCCCN)C(=O)N[C@@H](Cc2ccc(O)cc2)C(=O)N[C@@H](C(C)C)C(=O)N[C@@H](CC(C)C)C(=O)N[C@@H]([C@@H](C)O)C(=O)N[C@@H](Cc2ccc(O)cc2)C(=O)N[C@@H](CO)C(=O)N1)C(=O)N[C@@H](Cc1ccccc1)C(=O)N[C@@H](C)C(=O)N[C@@H](C)C(=O)NCC(N)=O [L2] ({CH2CO}-YWHKNKYVLTYSCLFAAG-NH2; thioether N-13)
- ΔTm (°C), purified peptide (H1 HA): 1 °C
- Inhibition of infection (infected cells relative to untreated control) [1]: strongly inhibited infection
- Inhibition of infection (infected cells relative to untreated control) [2]: fell short of inhibiting
- Binding region in the HA stem (HDX-MS) [3]: aa 369–387
- CC50 at 72 h (in vitro): > 5 µM
- Kd (H1 ectodomain): 0.0024 µM
- Inhibition of infection (infected cells relative to untreated control) [4]: strongly inhibited infection
- Inhibition of infection at a single concentration [5]: strong inhibition of infection
- IC50 ([5]; 16 h): 0.069 ± 0.0083 µM
- IC50 [6]: 1.05 ± 0.3 µM

Molecule: CC(C)[C@@H]1NC(=O)[C@H](Cc2c[nH]c3ccccc23)NC(=O)[C@H](CCCNC(=N)N)NC(=O)[C@H](Cc2ccc(O)cc2)NC(=O)CSC[C@@H](C(=O)NCCOCCOCC(=O)N[C@@H](CCn2nnc3c2-c2ccccc2CN(C(=O)CCCCCNC(=O)c2ccc4c(c2)C2(OC4=O)c4ccc(O)cc4Oc4cc(O)ccc42)c2ccccc2-3)C(=O)NCC(=O)N[C@@H](CC(=O)O)C(=O)N[C@@H](Cc2ccc(O)cc2)C(=O)N[C@@H](CCCCN)C(=O)N[C@@H](CC(=O)O)C(=O)N[C@@H](CC(=O)O)C(=O)N[C@@H](CC(=O)O)C(=O)N[C@@H](CC(=O)O)C(=O)N[C@@H](CCCCN)C(=O)NCC(N)=O)NC(=O)[C@H](C(C)C)NC(=O)[C@H](C(C)C)NC(=O)[C@H](Cc2ccccc2)NC(=O)[C@H](Cc2ccc(O)cc2)NC(=O)[C@@H]2CCCN2C(=O)[C@H](CCC(=O)O)NC(=O)[C@H](CO)NC(=O)[C@H](Cc2ccccc2)NC(=O)[C@H](Cc2ccccc2)NC(=O)[C@H](CO)NC(=O)[C@H]([C@@H](C)O)NC(=O)[C@H](Cc2c[nH]c3ccccc23)NC1=O [L4FAM] ({CH2CO}-YRWVWTSFFSEPYFVVC[AEEA][X1]([Ahx-6FAM])GDYKDDDDKG-NH2; thioether N-17)
- Hillslope (H1 ectodomain): 0.96 and 0.76

Molecule: CC[C@H](C)[C@@H]1NC(=O)[C@H](CCCCN)NC(=O)[C@H](CO)NC(=O)[C@H](Cc2c[nH]c3ccccc23)NC(=O)[C@H](Cc2ccc(O)cc2)NC(=O)[C@H]([C@@H](C)CC)NC(=O)[C@H](CCCCN)NC(=O)[C@H](CC(C)C)NC(=O)[C@@H](Cc2ccc(O)cc2)NC(=O)CSC[C@@H](C(=O)NCCOCCOCC(=O)N[C@@H](CCn2nnc3c2-c2ccccc2CN(C(=O)CCCCCNC(=O)c2ccc4c(c2)C2(OC4=O)c4ccc(O)cc4Oc4cc(O)ccc42)c2ccccc2-3)C(=O)NCC(=O)N[C@@H](CC(=O)O)C(=O)N[C@@H](Cc2ccc(O)cc2)C(=O)N[C@@H](CCCCN)C(=O)N[C@@H](CC(=O)O)C(=O)N[C@@H](CC(=O)O)C(=O)N[C@@H](CC(=O)O)C(=O)N[C@@H](CC(=O)O)C(=O)N[C@@H](CCCCN)C(=O)NCC(N)=O)NC(=O)[C@H](Cc2c[nH]c3ccccc23)NC(=O)[C@H](CCC(=O)O)NC(=O)[C@H](CO)NC(=O)[C@H](C(C)C)NC(=O)[C@H](CC(C)C)NC(=O)CNC(=O)[C@H](Cc2c[nH]cn2)NC1=O [S3FAM] ({CH2CO}-[dY]LKIYWSKIHGLVSEWC[AEEA][X1]([Ahx-6FAM])GDYKDDDDKG-NH2; thioether N-17)
- Hillslope (H1 ectodomain): 1.02 and 0.94

Molecule: CC(C)C[C@@H]1NC(=O)[C@H](C(C)C)NC(=O)[C@@H](Cc2ccc(O)cc2)NC(=O)CSC[C@@H](C(=O)NCCOCCOCC(=O)N[C@@H](CCn2nnc3c2-c2ccccc2CN(C(=O)CCCCCNC(=O)c2ccc4c(c2)C2(OC4=O)c4ccc(O)cc4Oc4cc(O)ccc42)c2ccccc2-3)C(=O)NCC(=O)N[C@@H](CC(=O)O)C(=O)N[C@@H](Cc2ccc(O)cc2)C(=O)N[C@@H](CCCCN)C(=O)N[C@@H](CC(=O)O)C(=O)N[C@@H](CC(=O)O)C(=O)N[C@@H](CC(=O)O)C(=O)N[C@@H](CC(=O)O)C(=O)N[C@@H](CCCCN)C(=O)NCC(N)=O)NC(=O)[C@H](C(C)C)NC(=O)[C@H](Cc2c[nH]c3ccccc23)NC(=O)[C@H](Cc2c[nH]cn2)NC(=O)[C@H]([C@@H](C)O)NC(=O)[C@H](C)NC(=O)[C@H](CC(C)C)NC(=O)[C@H]([C@@H](C)O)NC(=O)CNC(=O)[C@H](Cc2c[nH]cn2)NC(=O)[C@H](CC(=O)O)NC(=O)[C@H](Cc2c[nH]c3ccccc23)NC(=O)[C@H](CCCNC(=N)N)NC(=O)[C@H](Cc2ccccc2)NC1=O [S5FAM] ({CH2CO}-[dY]VLFRWDHGTLATHWVC[AEEA][X1]([Ahx-6FAM])GDYKDDDDKG-NH2; thioether N-17)
- Hillslope (H1 ectodomain): 0.97 and 0.86

Molecule: Cyclo(Ac-YITRFTPWPKLYPVWDC)G-NH2 (Ac-YITRFTPWPKLYPVWDCG-NH2; bridge N-17; also: cyclized, linkage type not given here) [L1]
- ΔTm (°C), purified peptide (H1 HA): 3.8 °C
- Inhibition of infection at a single concentration [5]: strong inhibition of infection

Molecule: Cyclo(Ac-YRFLWSSFSSQPSWVHC)G-NH2 [B5]
- ΔTm (°C), crude peptide (H1 HA): 1.4 °C

Molecule: Cyclo(Ac-YSNNRNWLPHDWQVLYC)G-NH2 [B6]
- ΔTm (°C), crude peptide (H1 HA): 1.6 °C

Molecule: Cyclo(Ac-YSYFDVNTIFWFSPFC)CG-NH2 [S9]
- ΔTm (°C), crude peptide (H1 HA): 0.0 °C

Molecule: Cyclo(Ac-YVQIFDRYGIYSGKWSC)G-NH2 [B8]
- ΔTm (°C), crude peptide (H1 HA): 1.0 °C

Molecule: Cyclo(Ac-YYKALWINATFYQSLVC)G-NH2 [R5]
- ΔTm (°C), crude peptide (H1 HA): 1.2 °C

Molecule: Cyclo(Ac-YYSWFEATGRFRAIFSC)G-NH2 [R4]
- ΔTm (°C), crude peptide (H1 HA): 1.4 °C

Molecule: Cyclo(Ac-yAFWIRWTNHYRSGFTC)G-NH2 [B4]
- ΔTm (°C), crude peptide (H1 HA): 2.0 °C
- Inhibition of infection at a single concentration [5]: strong inhibition of infection

Molecule: Cyclo(Ac-yFLC)TKWNYGRWYLFYCG-NH2 [R1]
- ΔTm (°C), crude peptide (H1 HA): 1.4 °C

Molecule: Cyclo(Ac-yFVNWYWHGEKLFYRYC)G-NH2 [R2]
- ΔTm (°C), crude peptide (H1 HA): 2.2 °C

Molecule: Cyclo(Ac-yIRLFWINGNLVSEWNC)G-NH2 [S2]
- ΔTm (°C), crude peptide (H1 HA): 4.4 °C
- Binding region in the HA stem (HDX-MS) [3]: aa 369–387
- Inhibition of infection at a single concentration [5]: strong inhibition of infection

Molecule: Cyclo(Ac-yIVLAWKGHYLESRWTC)G-NH2 [S8]
- ΔTm (°C), crude peptide (H1 HA): 1.6 °C

Molecule: Cyclo(Ac-yLIWPSFNQNAKIIFPC)G-NH2 [B9]
- ΔTm (°C), crude peptide (H1 HA): 3.6 °C

Molecule: Cyclo(Ac-yRQWFYLGKYYC)TWSCCG-NH2 [S4]
- ΔTm (°C), crude peptide (H1 HA): 0.0 °C

Molecule: Cyclo(Ac-yRVFNISWDGEYRSWWC)G-NH2 [B3]
- ΔTm (°C), crude peptide (H1 HA): 0.4 °C

Molecule: Cyclo(Ac-ySYFIWANFQTEPYFVC)G-NH2 [B2]
- ΔTm (°C), crude peptide (H1 HA): 0.6 °C
- Binding region in the HA stem (HDX-MS) [3]: aa 369–387
- Inhibition of infection at a single concentration [5]: strong inhibition of infection

Molecule: Cyclo(Ac-yTYYVLLQRWPPVWAPC)G-NH2 [B1]
- ΔTm (°C), crude peptide (H1 HA): 2.0 °C
- Binding region in the HA stem (HDX-MS) [3]: aa 369–387
- Inhibition of infection at a single concentration [5]: strong inhibition of infection

Molecule: Cyclo(Ac-yVIAIRPFSQLCWRWVC)G-NH2 [S7]
- ΔTm (°C), crude peptide (H1 HA): 0.4 °C

Molecule: Cyclo(Ac-yVKIVWFEGTLNTTWFC)G-NH2 [S6]
- ΔTm (°C), crude peptide (H1 HA): 1.6 °C
